# According to PMC9579956 (RSC Medicinal Chemistry, 2022):
# Target: Mycobacterium thermoresistible (Mtr) LpqY (Mycolicibacterium thermoresistibile, UniProt G7CES0)
# Type: binding
# Settings: single dose MST screen against LpqY
# Sequence of Mycobacterium thermoresistible (Mtr) LpqY (G7CES0 29-471): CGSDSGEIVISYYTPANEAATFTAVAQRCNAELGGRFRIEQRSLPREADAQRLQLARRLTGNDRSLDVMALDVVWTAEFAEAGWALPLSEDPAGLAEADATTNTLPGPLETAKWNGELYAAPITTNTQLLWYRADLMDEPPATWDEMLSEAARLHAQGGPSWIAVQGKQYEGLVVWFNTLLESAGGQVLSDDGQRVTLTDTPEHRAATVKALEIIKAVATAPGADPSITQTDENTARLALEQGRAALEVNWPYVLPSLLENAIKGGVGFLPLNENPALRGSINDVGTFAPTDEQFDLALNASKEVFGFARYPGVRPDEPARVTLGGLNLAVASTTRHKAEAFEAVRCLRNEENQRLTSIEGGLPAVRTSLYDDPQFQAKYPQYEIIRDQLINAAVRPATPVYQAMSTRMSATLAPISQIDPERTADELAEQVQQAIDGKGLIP
row,Structure (SMILES),Pathogen Box screen signal/noise ratio
1,CCCCS(=O)(=O)Nc1ccc2cnn(C)c2c1 [MMV687145],1.4
2,Nc1ncnc2c1c(-c1cnc3ccccc3c1)nn2CC1CCNCC1 [MMV688411],2.1
3,CNc1cc(C)nc(C2CN(C(=O)c3n[nH]c4ccccc34)CCO2)c1 (centres unmarked) [MMV689709],2.1
4,CC(C)C(NC(=O)Cc1cccc2ccccc12)C(=O)Nc1cccc(C#N)c1 (centres unmarked) [MMV020591],0.25
5,CC(C)(C)c1cc(C(=O)N2CCN(c3nccnc3C#N)CC2)n(Cc2ccccc2)n1 [MMV023949],0.7
6,O=C1[C@@H](Oc2ccccc2)[C@@H](c2ccc(Cl)cc2)N1CCn1cnc2c(NCc3ccccc3)ncnc21 [MMV688352],0.212
7,CCN(CC)S(=O)(=O)c1ccc(Cl)c(C(=O)Nc2ccc3nc(C)sc3c2)c1 [MMV019721],1.3
8,O=C(c1ccc(F)cc1)N(CCNc1ccccc1)c1ccccc1 [MMV676204],0.644
9,N#Cc1ccc(-c2ccc(OCC(N)=O)cc2)cc1 [MMV053220],0.639
10,COC(=O)Nc1nc2cc(C(=O)c3ccccc3)ccc2[nH]1 [MMV003152],1.9
11,COCC(C)NC(=O)CSc1ncnc2sc(-c3ccccc3)cc12 (centres unmarked) [MMV676536],1.9
12,COc1ccc(S(=O)(=O)Nc2ccc(CN3CCN(C(=O)c4cccc(C#N)c4)CC3)cc2)cc1 [MMV689029],0.156
13,O=C(Nc1cnc2ccccc2c1)c1cccc(-n2cnnn2)c1 [MMV084864],1.5
14,CC1CCCN(C(=O)C(C)Nc2cc(Cl)ccc2N2CCOCC2)C1 (centres unmarked) [MMV020388],0.556
15,Clc1cccc(C(c2ccc(CN3CCNCC3)cc2)n2ccnc2)c1 (centres unmarked) [MMV663250],0.278
16,CC(C)c1ncc(-c2ccncc2)c([C@H]2CC[C@H](CNC(=O)c3cccnc3)CC2)n1 [MMV676442],0.8
17,COc1cccc(OC)c1C(=O)Nc1ccc(Cl)c(-c2nc3ccccc3s2)c1 [MMV676472],0.348
18,CC(C)(CN)c1nc(-c2ccc(Cl)c(O)c2)c(-c2ccnc(N)n2)[nH]1 [MMV030734],3.5
19,Cc1nnc(NC(=O)c2cn(-c3ccccc3)nc2-c2ccccc2C)o1 [MMV020320],0.6
20,CCCS(=O)(=O)N1CCC(CO)(Cc2ccccc2C(F)(F)F)CC1 [MMV001059],0.0926
21,CCC(Sc1nc2ccccc2o1)C(=O)Nc1nnc(C)s1 (centres unmarked) [MMV611037],0.9
22,CC(=O)NC[C@H]1CN(c2ccc(N3CCSCC3)c(F)c2)C(=O)O1 [MMV688756],1.1
23,Cc1ccccc1CN1CCC(O)(c2ccc(Cl)c(C(F)(F)F)c2)CC1 [MMV688846],0.25
24,Cc1cc(C(=O)Nc2cnn(Cc3ccc(Cl)cc3Cl)c2)no1 [MMV009054],0.179
25,FC(F)(F)c1ccc(N(c2cccnc2)C2CCN(c3ccc(C(F)(F)F)cn3)CC2)cc1 [MMV689243],1.4
26,Nc1ccc2ncnc(Nc3ccc(OCc4cccc(F)c4)c(Cl)c3)c2c1 [MMV688273],0.8
27,COc1ccc(-c2cnc3ccc(N4CCCC4)nn23)cc1OC [MMV023985],2.0

row,Structure (SMILES),Pathogen Box screen signal/noise ratio
1,COc1cc(OC)cc(C(=O)NCC2Cc3cc(Cl)cc(-c4ccncc4)c3O2)c1 (centres unmarked) [MMV007471],0.2
2,CCOc1ccccc1NC(C)C(=O)Nc1cc(C(F)(F)F)ccc1N1CCOCC1 (centres unmarked) [MMV407834],2.3
3,O=C(Nc1c(O)cccc1-c1nc2c(C(=O)O)cccc2o1)c1cc(-c2ccccc2)on1 [MMV676008],1.7
4,Cc1ccc2nc(Cl)c(CNCc3cccs3)cc2c1 [MMV676439],0.278
5,COc1ccc(Cl)cc1NC(=O)CN(C)C(=O)c1cnn(-c2ccccc2)n1 [MMV020710],1.8
6,O=S(=O)(c1ccc(Cl)cc1)N1CCN(C(=S)NCc2ccco2)CC1 [MMV000858],2.2
7,CC(C)n1ncc2c(C(=O)NCC(c3cccs3)N3CCOCC3)cc(-c3ccccc3)nc21 (centres unmarked) [MMV676406],2.6
8,COc1cc(-c2cc(-c3ccc(S(C)(=O)=O)cc3)cnc2N)ccc1O [MMV010576],3.1
9,c1ccc(Oc2ccc(-c3cc(N4CCNCC4)[nH]n3)cc2)cc1 [MMV687706],-0.0238
10,Cc1ccc2[nH]c3c(NCCN(C)C)ncnc3c2c1 [MMV006372],0.333
11,CCOC(=O)c1noc(N)c1-c1ccccc1 [MMV1236379],1.2
12,O=C(NC1CCCCC1)N1CCN(Cc2ccc3c(c2)OCO3)CC1 [MMV676444],1.3
13,O=C(c1ccc(NCCO)cc1)C1C[C@H]1c1ccc(Cl)cc1 (some centres unmarked) [MMV676877],0.0
14,Nc1ncnc2c1c(Cc1cccc3ccccc13)nn2CC1CCNCC1 [MMV676182],0.0
15,Cc1nn2c(O)c3c(nc2c1-c1ccc(F)cc1)CCCC3 [MMV099637],3.3
16,Nc1ncnc2c1ncn2C[C@@H](O)[C@@H](O)C(=O)O [MMV689255],2.5
17,Cc1cc(NC(=O)c2ccc(S(=O)(=O)N(Cc3ccccc3)C(C)C)cc2)no1 [MMV007133],0.4
18,CC(C)(C)C(=O)N(CCCCCCN1C[C@H](O)[C@@H](O)[C@H](O)[C@H]1CO)C1CCCCCC1 [MMV688543],1.3
19,COc1cc(Br)cc2cc(C(=O)Nc3cccc(C(F)(F)F)c3)c(=O)oc12 [MMV688891],0.646
20,CC1=NN(c2nc3ccccc3s2)C(=O)C1Cc1cccc2ccccc12 (centres unmarked) [MMV676558],3.8
21,CC1(COc2ccc(N3CCC(Oc4ccc(OC(F)(F)F)cc4)CC3)cc2)Cn2cc([N+](=O)[O-])nc2O1 (centres unmarked) [MMV688262],0.232
22,O=C(NCCc1ccccc1)c1cc(-c2cccnc2)cnc1NCC1CC1 [MMV026490],1.4
23,CCCn1c(CNc2ccccc2O)nc2ccccc21 [MMV676445],0.8
24,COc1cccn2c(C(=O)N3CCCCC3)c(C(F)(F)F)nc12 [MMV1110498],1.5
25,CC1CS(=O)(=O)CCN1/N=C/c1ccc([N+](=O)[O-])o1 (centres unmarked) [MMV001499],2.4
26,CC(C(=O)Nc1ccc2oc(-c3ccncc3)nc2c1)c1ccccc1 (centres unmarked) [MMV688471],1.6
27,CC(C)NCC(=O)Nc1cccc(C(=O)Nc2cccc(C(F)(F)F)c2)c1 [MMV020165],4.3

row,Structure (SMILES),Pathogen Box screen signal/noise ratio
1,CN(C)c1cc(NC(=O)Nc2ccccc2)c2ccccc2n1 [MMV006901],1.2
2,Clc1ccc(CCNc2cc(-c3ccccc3)nc3ncnn23)cc1 [MMV688889],3.0
3,O=C(NCc1cc(Cl)cc(Cl)c1)c1c(C(F)(F)F)nc2ccccn12 [MMV687699],0.8
4,O=C(NC1=NCCS1)c1sc2cc(F)ccc2c1Cl [MMV676584],1.1
5,O=C(Nc1ccc(F)c(-c2nc3cc(-c4ccccc4)cnc3[nH]2)c1)N1CCCC1 [MMV688372],0.9
6,COC(=O)C1=C(C)NC(C)=C(C(=O)OC(C)C)C1c1cccc2nonc12 (centres unmarked) [MMV001493],1.1
7,Cn1c(=O)c2c(S(C)(=O)=O)snc2n(C)c1=O [MMV687251],0.0729
8,CC(C)(C)C1CCC(CC2=C(O)C(=O)c3ccccc3C2=O)CC1 (centres unmarked) [MMV689480],2.3
9,CC(C)(C(=O)Nc1ccc(F)cc1)n1cc(-c2ccccc2F)cn1 [MMV687239],0.467
10,Nc1nc2ccc(-c3cncc(Oc4ccc(F)cc4)c3)cc2[nH]1 [MMV687248],0.2
11,COc1ccc(OC)c(NCc2ccc3nc(N)nc(N)c3c2Cl)c1 [MMV675968],5.0
12,CCCCc1ccc(C(=O)Nc2nccc3ccccc23)nc1 [MMV687254],0.0729
13,CC(C)N=c1cc2n(-c3ccc(Cl)cc3)c3ccccc3nc-2cc1Nc1ccc(Cl)cc1 [MMV687800],0.6
14,C[C@]1(O)C[C@@H](c2nc(-c3ccc4ccc(-c5ccccc5)nc4c3)c3c(N)nccn32)C1 [MMV676605],0.9
15,CC(=O)NCC1CN(c2ccc(-c3ccc(CO)cc3)c(F)c2)C(=O)O1 (centres unmarked) [MMV688508],0.8
16,CNC1C(OC2C(OC3C(O)C(O)C(NC(=N)N)C(O)C3NC(=N)N)OC(C)C2(O)C=O)OC(CO)C(O)C1O (centres unmarked) [MMV688994],0.56
17,COc1cc(NC(=O)Cc2nn(C)c(=O)c3ccccc23)ccc1Cl [MMV676053],1.3
18,O=C(NCCN1CCCC1)c1cc(NCCCCN2CCC(F)(F)CC2)nc2ccc(Cl)cc12 [MMV667494],0.344
19,COc1ccc(N(CCc2cccc(C)n2)C(C)=O)cc1 [MMV675995],0.318
20,CCOc1ccc(-c2nc(CNCCc3ccc(F)cc3)cs2)cc1 [MMV688938],-0.25
21,O=C(NC1CC1)c1ccc(N2CCOc3ccc(Cl)cc32)s1 [MMV020537],1.9
22,CC(Oc1cccc(Cl)c1)C(=O)Nc1ccc2oc(-c3ccncc3)nc2c1 (centres unmarked) [MMV688472],0.7
23,CCCCCCCCCCCCCCCCOP(=O)([O-])OCC[N+](C)(C)C [MMV688990],0.7
24,O=C(Nc1nc(-c2ccccn2)cs1)c1cncn1-c1ccccc1 [MMV676512],0.561
25,CCCNC(=O)N1CCC2(CC1)CC(=O)c1cc(C)ccc1O2 [MMV085230],1.0
26,CCCCOC(=O)Nc1cc2nc(C3CCCCC3)[nH]c2cc1N1CCCC1 [MMV687730],1.3
